Assay results as given in patent US20160106439A1, “PNEUMATIC TOURNIQUET” (BIONUMERIK PHARMACEUTICALS, INC., priority 2013, published 2016).
Read-outs that look alike come from different tables or passages of the source.

What was measured:
recombinant human ALK = recombinant human ALK (Homo sapiens, UniProt Q9UM73); assay: biochemical; conditions: for IC50: IC50 on ALK
Experimental: The substrate that was phosphorylated by the kinase, polyglutamate-tyrosine (PolyGT), was purchased from Sigma (P0275, lot 120M5007V).
All other reagents were purchased from Sigma Aldrich. A Tecan Ultra microplate reader with XFluor software (Tecan, V4.51) and RdrOle software (Tecan, V4.50) were used in this study.
ALK phosphorylated the polyGT substrate using the ATP cofactor and produced ADP. […] The reactions, in microtubes, were incubated for 60 minutes at 25° C. in a water bath. Following this 60 minute incubation, reactions were transferred to microplates and the kinase activity was evaluated using the ADP-glo system from Promega and monitored, in an endpoint assay, ADP produced when ALK phosphorylated the PolyGT substrate. Various controls were tested and included the assay components indicated in the columns of Table 9 below (where + indicates the component was included and an empty cell indicates it was not included).
Kinase assays were run in triplicate or quadruplicate in microplates. Following this, the ADP-glo detection system (Promega) was used to determine how much ADP had been produced. For 10 μL volume assays, to each microplate well containing 10 μL of kinase reaction was added ADP-glo reagent (10 μL), plates were spun in a table top centrifuge (1000 rpm (123×g) for 1 minute) to ensure no reagent remained on the well walls, and then agitated for 1 minute to ensure optimal mixing. Plates were incubated at 25° C. on a heat block for 40 minutes. Next, kinase detection reagent (20 μL) was added and, as above, centrifugation and agitation was repeated; plates were allowed to incubate at 25° C.±1° C. on a heat block for 40 minutes. Following the incubation of the kinase detection reagent, plates were read on a Tecan Ultra microplate reader. The Tecan Ultra contained a built-in plate definition file for the whole area 96-well white Corning plates but a plate definition file for the half area 96-well Corning plates was created using the RdrOle component of the Tecan Ultra software. For 25 μL volume assays, the procedure was as described above except that the ADP-glo reagent added to the 25 μL assay was 25 μL in volume and the kinase detection reagent was 50 μL in volume.
Therefore, each mole of polymer of 20,000 g/mole would contain approximately 28 moles of the glu-glu-glu-glu-tyr “subpolymer.” Typically, a 10 μL assay would contain […] of the polyGT substrate. […] This was a vast excess of possible tyrosine phosphorylation sites, ensuring that the substrate for phosphorylation was not rate limiting (assuming the higher mass range would produce an even larger excess of glu-glu-glu-glu-tyr “subpolymers”).
Data from ALK assays run on the Tecan Ultra microplate spectrophotometer were collected in Microsoft Excel. Error calculations and graphical representations were performed in Microsoft Office Excel (Microsoft Corporation, Redmond, Wash., USA). Determination of IC25, IC50 and IC75 values were accomplished using Origin Lab software (OriginLab Corporation, Northampton, Mass., USA).

[1] = tested on: Stage IV primary adenocarcinoma of the lung; assay: Tavocept Phase III Clinical Trial (Interim Analysis); assay type: in vivo, patients
Source text: In the Tavocept Phase III Clinical Trial pre-specification was made through stratification factors including sex (i.e., male versus female) and taxane treatment (i.e., paclitaxel versus docetaxel). Eligible patients had not received prior drug treatment for their cancer, and inclusion in the trial was also allowed for patients who had relapsed following surgery for earlier stage disease as well as patients with central nervous system metastasis. A total of 540 patients were enrolled on the trial.
The primary endpoint of this study was overall survival (OS); defined as the time period from the date of patient randomization to the date of death due to any cause.
All patients received standard combination chemotherapy (taxane agent plus cisplatin) and either Tavocept or placebo.
The primary endpoint for analysis was the duration of overall survival, defined as the time from the date of randomization to the date of death due to any cause. The number of mortality events used for the final analysis depended upon the number of patients enrolled into the study (provided the sample size was adjusted at the interim analysis). For the primary analysis, the expected number of total mortality events was approximately 416 mortality events for a sample size of 575 patients.
The one-sided log-rank test was performed in order to allow the application of the adaptive methodology. Details of this 2-stage adaptive design are described below. Kaplan-Meier survival curves (including identification of censored observations) was presented by treatment group, as well as median survival times and their 95% confidence intervals.
The following specific endpoints were evaluated with pre-specified analyses in order to evaluate for potential clinically and statistically significant differences between Tavocept- and placebo-treated patients.
The incidence of cisplatin renal toxicity and anemia, and the impact of emesis on daily life were analyzed using the Cochran-Mantel-Haenszel (CMH) tests for proportions. The CMH test was applied in the comparison between Tavocept and placebo where adjustment for prognostic factors is clinically important (e.g., adjusting for baseline characteristics). To control for Type I error due to multiple comparisons of safety data, a nominal, 2-sided p-value of less than 0.0125 was used for each comparison of renal toxicity, anemia, and emesis.

Human Grx = target: T1, Human Grx (Homo sapiens, UniProt P35754); assay: MS and crystal structure of Grx with Tavocept-derived mesna adducts; assay type: binding
T1 construct: 6xHis (TEV-cleavable) (N, cleaved yes); made in house; host or cells: E. coli BL21 (RIPL)

[2] = Female Non-Smokers receiving paclitaxel and cisplatin
[3] = Females receiving paclitaxel and cisplatin
[4] = Male & Female Non-Smokers receiving paclitaxel and cisplatin

recombinant human ALK, sequence (Q9UM73 1058-1620 limits assumed): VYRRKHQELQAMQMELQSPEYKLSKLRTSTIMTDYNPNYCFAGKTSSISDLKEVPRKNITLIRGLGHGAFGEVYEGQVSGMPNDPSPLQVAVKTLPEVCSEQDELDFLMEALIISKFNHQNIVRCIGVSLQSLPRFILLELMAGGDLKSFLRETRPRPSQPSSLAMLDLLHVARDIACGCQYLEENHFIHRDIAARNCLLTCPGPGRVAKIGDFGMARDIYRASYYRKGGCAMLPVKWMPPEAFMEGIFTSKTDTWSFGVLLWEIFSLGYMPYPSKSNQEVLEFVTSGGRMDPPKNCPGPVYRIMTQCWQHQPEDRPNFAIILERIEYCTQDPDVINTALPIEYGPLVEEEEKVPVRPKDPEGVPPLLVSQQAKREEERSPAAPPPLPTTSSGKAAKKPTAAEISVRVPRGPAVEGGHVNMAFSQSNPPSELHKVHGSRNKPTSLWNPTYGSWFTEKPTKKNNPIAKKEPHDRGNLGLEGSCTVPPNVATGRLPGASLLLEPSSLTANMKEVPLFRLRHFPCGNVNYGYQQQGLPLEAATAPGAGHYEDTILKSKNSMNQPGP
T1 sequence (P35754 whole entry): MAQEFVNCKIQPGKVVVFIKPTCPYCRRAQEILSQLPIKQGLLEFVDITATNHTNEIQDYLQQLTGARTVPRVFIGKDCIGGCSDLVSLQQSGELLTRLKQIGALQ

O=S(=O)([O-])CCSSCCS(=O)(=O)[O-].[Na+].[Na+] [Tavocept, disodium 2,2′-dithio-bis-ethane sulfonate]
greater inhibition of ALK than Crizotinib alone (recombinant human ALK; 100 μM ATP, 5 mM Tavocept + 15 nM Crizotinib): 16%
greater inhibition of ALK than Crizotinib alone (recombinant human ALK; 100 μM ATP, 5 mM Tavocept + 30 nM Crizotinib): 10%
greater inhibition of ALK than Crizotinib alone (recombinant human ALK; 100 μM ATP, 10 mM Tavocept + 15 nM Crizotinib): 29%
greater inhibition of ALK than Crizotinib alone (recombinant human ALK; 100 μM ATP, 10 mM Tavocept + 30 nM Crizotinib): 19%
greater inhibition of ALK than Crizotinib alone (recombinant human ALK; 500 μM ATP, 5 mM Tavocept + 30 nM Crizotinib): 11%
greater inhibition of ALK than Crizotinib alone (recombinant human ALK; 500 μM ATP, 5 mM Tavocept + 65 nM Crizotinib): 6%
greater inhibition of ALK than Crizotinib alone (recombinant human ALK; 500 μM ATP, 10 mM Tavocept + 30 nM Crizotinib): 20%
greater inhibition of ALK than Crizotinib alone (recombinant human ALK; 500 μM ATP, 10 mM Tavocept + 65 nM Crizotinib): 6%
greater inhibition of ALK than Crizotinib alone (recombinant human ALK; 500 μM ATP, 20 mM Tavocept + 30 nM Crizotinib): 30%
greater inhibition of ALK than Crizotinib alone (recombinant human ALK; 500 μM ATP, 20 mM Tavocept + 65 nM Crizotinib): 13%
IC50 (recombinant human ALK; 100 μM ATP): 9.16 ± 2.91 mM
IC50 (recombinant human ALK; 500 μM ATP): 20.8 ± 3.49 mM
inhibition at 5000 µM (recombinant human ALK; read-out: greater inhibition of ALK than Crizotinib alone, 100 μM ATP, 5 mM Tavocept + 15 nM Crizotinib): 16%
inhibition at 5000 µM (recombinant human ALK; read-out: greater inhibition of ALK than Crizotinib alone, 100 μM ATP, 5 mM Tavocept + 30 nM Crizotinib): 10%
inhibition at 10000 µM (recombinant human ALK; read-out: greater inhibition of ALK than Crizotinib alone, 100 μM ATP, 10 mM Tavocept + 15 nM Crizotinib): 29%
inhibition at 10000 µM (recombinant human ALK; read-out: greater inhibition of ALK than Crizotinib alone, 100 μM ATP, 10 mM Tavocept + 30 nM Crizotinib): 19%
inhibition at 5000 µM (recombinant human ALK; read-out: greater inhibition of ALK than Crizotinib alone, 500 μM ATP, 5 mM Tavocept + 30 nM Crizotinib): 11%
inhibition at 5000 µM (recombinant human ALK; read-out: greater inhibition of ALK than Crizotinib alone, 500 μM ATP, 5 mM Tavocept + 65 nM Crizotinib): 6%
inhibition at 10000 µM (recombinant human ALK; read-out: greater inhibition of ALK than Crizotinib alone, 500 μM ATP, 10 mM Tavocept + 30 nM Crizotinib): 20%
inhibition at 10000 µM (recombinant human ALK; read-out: greater inhibition of ALK than Crizotinib alone, 500 μM ATP, 10 mM Tavocept + 65 nM Crizotinib): 6%
inhibition at 20000 µM (recombinant human ALK; read-out: greater inhibition of ALK than Crizotinib alone, 500 μM ATP, 20 mM Tavocept + 30 nM Crizotinib): 30%
inhibition at 20000 µM (recombinant human ALK; read-out: greater inhibition of ALK than Crizotinib alone, 500 μM ATP, 20 mM Tavocept + 65 nM Crizotinib): 13%
Median survival [1, 2]: 27.0 months
Median survival advantage vs placebo [1, 2]: 13.6 months
Median survival [1, 3]: 25.0 months
Median survival advantage vs placebo [1, 3]: 11.8 months
Median survival [1, 4]: 25.2 months
Median survival advantage vs placebo [1, 4]: 12 months
Median survival advantage vs placebo ([1]; PS 1 ECOG Performance Status subjects): 2.82 months
Median survival advantage vs placebo ([1]; PS 1 ECOG females receiving paclitaxel and cisplatin): 11.1 months
Median survival advantage vs placebo ([1]; PS 1 ECOG males and females receiving paclitaxel and cisplatin): 4.0 months
Median survival ([1]; Stage IV M1b subjects): 11.33 months
2-year survival ([1]; all females receiving paclitaxel and cisplatin): 51%
2-year survival ([1]; all subjects receiving paclitaxel and cisplatin): 30%
Overall median survival advantage vs placebo ([1]; all subjects, paclitaxel or docetaxel plus cisplatin, P=0.723): greater than 2 month
Protection against chemotherapy-induced kidney toxicity ([1]; compared to placebo, P=0.0528): improvement in the relative creatine decrease from baseline
Anemia ([1]; compared to the placebo arm): reduced anemia
2-year survival ([1]; female non-smokers receiving paclitaxel and cisplatin): 72.4%
Median survival advantage vs placebo ([1]; female subjects >=65 years receiving paclitaxel and cisplatin): 2.1 months
Median survival ([1]; female subjects receiving paclitaxel plus cisplatin, Newly Diagnosed): 25.0 months
Median survival ([1]; female subjects receiving paclitaxel plus cisplatin, no subsequent therapy): 14.2 months
Survival vs placebo ([1]; female subjects with CNS Metastases, paclitaxel plus cisplatin, P=0.0343): Survival advantage in favor of Tavocept
2-year survival ([1]; male and female non-smokers receiving paclitaxel and cisplatin): 63%
Median survival advantage vs placebo ([1]; male and female subjects >=65 years receiving paclitaxel and cisplatin): 3.5 months
Median survival ([1]; male and female subjects receiving paclitaxel plus cisplatin, Newly Diagnosed): 15.3 months
Median survival ([1]; male and female subjects receiving paclitaxel plus cisplatin, no subsequent therapy): 10.0 months
Median period of additional survival after starting new chemotherapy, longer than placebo ([1]; patients previously receiving Tavocept, paclitaxel and cisplatin): 3.4 months
Median overall survival from randomization ([1]; patients receiving post-study new chemotherapy, paclitaxel and cisplatin): 23.0 months
Median survival ([1]; subjects Newly Diagnosed at enrollment): 14.19 months
Median survival advantage vs placebo ([1]; subjects greater than or equal to 65 years of age): 3 months
Median survival ([1]; subjects who received paclitaxel and cisplatin): 15.4 months
Median survival advantage vs placebo ([1]; subjects who received paclitaxel and cisplatin instead of docetaxel and cisplatin): 3.68 months
Median survival ([1]; subjects with CNS Metastases present): 11.76 months
Overall survival, patients receiving post study therapy ([1]; vs 9.2 months placebo): 12.2 months
number of Tavocept-derived mesna adducts on Human Grx (Human Grx; Mass Spectrum): two
Grx cysteines with Tavocept-derived mesna adduct (Human Grx; atomic resolution map): Cys7 (Panel A) and Cys82
